Consider 1 compound from patent US20240277637A1, “CAPSAICIN DERIVATIVES IN THE TREATMENT OF IDIOPATHIC PULMONARY FIBROSIS” (aXichem AB, priority 2021, published 2024).

Data set [1] deals with human bronchial epithelial cells. The data set is described as follows: Clonogenic cell survival assay, bronchial epithelial cells with PDGF-AB (Example 2). The class given is cell-based. On the procedure:
Primary isolated human bronchial epithelial cells (NHBE) (Normal, Human (ATCC® BEAS-2B™)) were cultured up to passage 6. […].
A clonogenic cell survival assay determines the ability of a cell to proliferate indefinitely. The effects of phenylcapsaicin on clonogenic survival of bronchial epithelial cells was investigated by plating the cells with increasing numbers (10^2 to 5×10^4) in 25 cm^2 flasks. SU9518, a known inhibitor for PDGF which has shown the ability to reduce radiation-induced fibroblast and endothelial cell activation, was used as the positive control. The cells were incubated with 0-10 μM of phenylcapsaicin and SU9518 separately in the presence of 10 ng/ml PDGF-AB. The flasks were returned to the incubator for 14 days, after which they were stained with crystal violet. The colonies were counted, and the surviving percentage was determined for clonogenic survival after correcting for plating efficiency.

For data set [2] the following is noted: Rage Paulsen et al. 2018; cited from earlier work.

On to `COc1cc(CNC(=O)CCCCC#Cc2ccccc2)ccc1O` [Compound 2, N-(4-hydroxy-3-methoxybenzyl)-7-phenylhept-6-ynamide], for which the “effect on clonogenic survival” value in data set [1] (0-10 μM, 10 ng/ml PDGF-AB, 14 days) is recorded as “dose-dependent inhibitory effect on survival”. Further, the “surviving fraction of epithelial cells” value in data set [1] (5 μM, 10 ng/ml PDGF-AB, 14 days) was found to be 35%. The “survival rate of the cells” value in data set [1] (10 μM, after 14 days, in the presence of PDGF) came to 35%. In data set [2], the “gene mutations and chromosomal damage” value is “safe with regards to gene mutations and chromosomal damage”; the “systemic toxicity” value is given as “low systemic toxicity”.
